Measured values taken from publication PMC12526212, “Novel Isolongifolenone-Based Caprolactam Derivatives as Potential Anticancer Agents via the p53/mTOR/Autophagy Pathway” (Molecules, 2025).
Where two headings read alike, the source gives them in different places.

Experiments:
MCF-7 = test: CCK-8 antiproliferative assay, MCF-7; format: cell-based; settings: Homo sapiens, read-out: IC50 MCF-7
Protocol: (§1) After synthesis and characterization, the isolongifolenone bicyclocaprolactam derivatives were evaluated for their in vitro antiproliferative activity against three cancer cell lines (MCF-7, HepG2, A549) using a CCK-8 assay. […] In general, the antiproliferative activities of most of these compounds were similar, irrespective of whether electron-withdrawing or electron-donating substituents were introduced in the phenoxy ring.
(§2) Three cancer cell lines (human breast adenocarcinoma cells MCF-7, human lung adenocarcinoma epithelial cells A549, and human hepatocellular carcinoma cells HepG2) were obtained from the Cell Bank of the Chinese Academy of Sciences (Shanghai, China). LO2 human normal liver cells were also purchased from STEM RECELL (Beijing, China, STM-CL-5770). The anti-proliferation activity of compounds was tested on three cancer cell lines. The cytotoxicity of compounds as tested on normal cell line (human normal liver cells LO2). Cells were seeded at a density of 5000 cells per well in 96-well plates. Natural product piperlongumine was used as the positive control. All experiments were performed in triplicate. Three cancer cell lines were cultured in High DMEM medium or RIPM 1640 containing 10% FBS (Sijiqing, Hangzhou, China) and 1% antibiotics at 37 °C in a 5% CO2 incubator. The experimental cells were seeded in a 96-well plate at 5000 cells per well and incubated for 24 h. The old medium was replaced with experimental medium, and the cells were cultured for 48 h. Afterward, 10 µL of CCK-8 solution was added to each well, and the cells were incubated for 3 h. The absorbance at 450 nm was measured using a microplate reader.

HepG2 = test: CCK-8 antiproliferative assay, HepG2; format: cell-based; settings: Homo sapiens, read-out: IC50 HepG2
Protocol: as §1, §2

LO2 = test: CCK-8 cytotoxicity on normal cell line LO2; format: cell-based; settings: Homo sapiens, L02; normal liver cells, CCK-8, 48 h, mean ± SD of three experiments
Protocol: as §2

A549 = test: CCK-8 antiproliferative assay, A549; format: cell-based; settings: Homo sapiens, read-out: IC50 A549
Protocol: as §1, §2

[1] = test system: three cancer cell lines (MCF-7, HepG2, A549); test: CCK-8 antiproliferative assay, three cancer cell lines together; format: cell-based, human
Protocol: as §1, §2

MCF-7 xenograft = test: Zebrafish MCF-7 xenograft model; format: in vivo; settings: 48 h, compared with PBS control; Dox 1.0 μM
Excerpt: Zebrafish have become a well-established model for both anticancer drug discovery and toxicity evaluation. This animal model affords several unique advantages, including rapid development, optical transparency, and genetic conservation with humans. These features make zebrafish particularly suitable for high-throughput in vivo screening and mechanistic studies in oncology research. Tumor burden in zebrafish xenografts is commonly quantified from Dil/DiI-labeled fluorescence area or integrated intensity, which correlates with cell number and treatment response. To assess the in vivo antitumor efficacy of compound E10, we established a zebrafish xenograft model. Briefly, CM-Dil-labeled MCF-7 cells (showing red fluorescence) were microinjected into the yolk sacs of zebrafish embryos. The xenografted zebrafish were then randomly assigned into five groups: three E10-treatment groups (0.5 µg/mL, 1.0 µg/mL, and 2.0 µg/mL), a Doxorubicin (Dox) positive control group, and a PBS negative control group.
All experimental procedures were approved by ACUC of Shandong Academy of Sciences (Animal Care and Use Committee). Wild-type AB of zebrafish were obtained from Biology Institute, Qilu University of Technology. The embryos were incubated in special embryonic medium (0.17 mM KCl, 5.0 mM NaCl, 0.4 mM CaCl2, and 0.16 mM MgSO4) at 28 °C. 48 h-old zebrafish embryos were microinjected with CM-Dil labelled MCF-7 cells under stereomicroscopy. After injection, zebrafish embryos with the same injection spot were randomly planted on a six-well plate. These xenograft zebrafish were sorted into four groups of about 15–20 zebrafish each and treated with 0.5, 1.0, 2.0 μg/mL of compound E10 for 48 h, 1.0 μM doxorubicin as a positive control group. After treatment, the fluorescence intensity of living cells was examined with laser confocal microscopy (Olympus, Tokyo, Japan).

[2] = MCF7, CCK-8, 48 h, mean ± SD of three experiments
[3] = HepG2, CCK-8, 48 h, mean ± SD of three experiments
[4] = A549, CCK-8, 48 h, mean ± SD of three experiments

SMILES | IC50 (MCF-7; [2]) [µM] | IC50 (HepG2; [3]) [µM] | IC50 (A549; [4]) [µM] | IC50 (LO2) [µM] | antiproliferative / anticancer activity [1] | IC50 (MCF-7; MCF7, 48 h) [µM] | IC50 (HepG2; HepG2, 48 h) [µM] | IC50 (A549; A549, 48 h) [µM] | fluorescence intensity of xenograft (MCF-7 xenograft)
CC1(C)C2=CC(=O)N(C(=O)C=Cc3ccc(F)c(F)c3)CC(C)(C)C23CCC1C3 (stereo not drawn) [E19, 5,5,9,9-Tetramethyl-3-(3-(3,4-difluorophenyl)acryloyl)-4,5,6,7,8,9-hexahydro-5a,8-methanobenzo[d]azepin-2(3H)-one] | 17.07 ± 0.06 | 18.43 ± 0.16 | 18.9 ± 0.16 | > 20 | good anticancer activity |  |  |  | 
CC1(C)C2=CC(=O)N(C(=O)C=Cc3ccc(C(F)(F)F)cc3)CC(C)(C)C23CCC1C3 (stereo not drawn) [E4, 5,5,9,9-Tetramethyl-3-(3-(4-(trifluoromethyl)phenyl)acryloyl)-4,5,6,7,8,9-hexahydro-5a,8-methanobenzo[d]azepin-2(3H)-one] | 16.74 ± 0.16 | > 20 | 14.98 ± 0.1 | > 20 |  |  |  |  | 
CC1(C)C2=CC(=O)N(C(=O)C=Cc3ccccc3C(F)(F)F)CC(C)(C)C23CCC1C3 (stereo not drawn) [E11, 5,5,9,9-Tetramethyl-3-(3-(2-(trifluoromethyl)phenyl)acryloyl)-4,5,6,7,8,9-hexahydro-5a,8-methanobenzo[d]azepin-2(3H)-one] | 5.63 ± 0.3 | 4.53 ± 0.12 | 18.3 ± 0.21 | > 20 |  |  |  |  | 
COc1cc(/C=C/C(=O)N2CCC=CC2=O)cc(OC)c1OC [PL, Piperlongumine, reference compound] |  |  |  |  |  | 2.79 ± 0.43 | 3.46 ± 0.25 | 5.83 ± 0.26 | 
CC1(C)C2=CC(=O)N(C(=O)C=Cc3ccc(Cl)cc3)CC(C)(C)C23CCC1C3 (stereo not drawn) [E3, 5,5,9,9-Tetramethyl-3-(3-(4-chlorophenyl)acryloyl)-4,5,6,7,8,9-hexahydro-5a,8-methanobenzo[d]azepin-2(3H)-one] | 18.97 ± 0.13 | 7.09 ± 0.33 | 16.9 ± 0.27 | > 20 |  |  |  |  | 
COc1cccc2c1C(=O)c1c(O)c3c(c(O)c1C2=O)C[C@@](O)(C(=O)CO)C[C@@H]3O[C@H]1C[C@H](N)[C@H](O)[C@H](C)O1 [Dox, Doxorubicin, reference compound] |  |  |  |  |  |  |  |  | notable reduction in fluorescence intensity
CC1(C)C2=CC(=O)N(C(=O)C=Cc3cccnc3)CC(C)(C)C23CCC1C3 (stereo not drawn) [E18, 5,5,9,9-Tetramethyl-3-(3-(pyridin-3-yl)acryloyl)-4,5,6,7,8,9-hexahydro-5a,8-methanobenzo[d]azepin-2(3H)-one] | > 20 | > 20 | > 20 | > 20 | entirely lost |  |  |  | 
CC1(C)C2=CC(=O)N(C(=O)C=Cc3ccc(F)cc3)CC(C)(C)C23CCC1C3 (stereo not drawn) [E1, 5,5,9,9-Tetramethyl-3-(3-(4-fluorophenyl)acryloyl)-4,5,6,7,8,9-hexahydro-5a,8-methanobenzo[d]azepin-2(3H)-one] | 9.18 ± 0.11 | > 20 | 11.7 ± 0.16 | > 20 |  |  |  |  | 

Further lines, with some results ahead:

IC50 (MCF-7; [2]) [µM] | IC50 (HepG2; [3]) [µM] | IC50 (A549; [4]) [µM] | SMILES | IC50 (LO2) [µM] | antiproliferative / anticancer activity [1] | IC50 (MCF-7; MCF7, 48 h) [µM] | IC50 (HepG2; HepG2, 48 h) [µM] | IC50 (A549; A549, 48 h) [µM] | fluorescence intensity of xenograft (MCF-7 xenograft)
1.29 ± 0.04 | 6.6 ± 0.07 | 3.18 ± 0.16 | Cc1ccc(C=CC(=O)N2CC(C)(C)C34CCC(C3)C(C)(C)C4=CC2=O)cc1 (stereo not drawn) [E2, 5,5,9,9-Tetramethyl-3-(3-(4-tolyl)acryloyl)-4,5,6,7,8,9-hexahydro-5a,8-methanobenzo[d]azepin-2(3H)-one] | > 20 |  |  |  |  | 
2.12 ± 0.04 | 2.67 ± 0.16 | 4.64 ± 0.06 | CC1(C)C2=CC(=O)N(C(=O)C=Cc3ccccc3Br)CC(C)(C)C23CCC1C3 (stereo not drawn) [E13, 5,5,9,9-Tetramethyl-3-(3-(2-bromophenyl)acryloyl)-4,5,6,7,8,9-hexahydro-5a,8-methanobenzo[d]azepin-2(3H)-one] | > 20 |  |  |  |  | 
1.26 ± 0.19 | 4.89 ± 0.52 | 3.55 ± 0.04 | CC1(C)C2=CC(=O)N(C(=O)C=Cc3cccc(Br)c3)CC(C)(C)C23CCC1C3 (stereo not drawn) [E12, 5,5,9,9-Tetramethyl-3-(3-(3-bromophenyl)acryloyl)-4,5,6,7,8,9-hexahydro-5a,8-methanobenzo[d]azepin-2(3H)-one] | 11.26 ± 0.06 |  |  |  |  | 
5.32 ± 0.11 | 5.96 ± 0.05 | 5.34 ± 0.16 | CC1(C)C2=CC(=O)N(C(=O)C=Cc3cccc(F)c3)CC(C)(C)C23CCC1C3 (stereo not drawn) [E6, 5,5,9,9-Tetramethyl-3-(3-(3-fluorophenyl)acryloyl)-4,5,6,7,8,9-hexahydro-5a,8-methanobenzo[d]azepin-2(3H)-one] | > 20 |  |  |  |  | 
1.27 ± 0.04 | 2.38 ± 0.16 | 3.21 ± 0.16 | CC1(C)C2=CC(=O)N(C(=O)C=Cc3ccc(Br)cc3)CC(C)(C)C23CCC1C3 (stereo not drawn) [E14, 5,5,9,9-Tetramethyl-3-(3-(4-bromophenyl)acryloyl)-4,5,6,7,8,9-hexahydro-5a,8-methanobenzo[d]azepin-2(3H)-one] | > 20 |  |  |  |  | 
2.67 ± 0.11 | 6.67 ± 0.06 | 2.28 ± 0.1 | CC1(C)C2=CC(=O)N(C(=O)C=Cc3cccc(Cl)c3)CC(C)(C)C23CCC1C3 (stereo not drawn) [E7, 5,5,9,9-Tetramethyl-3-(3-(3-chlorophenyl)acryloyl)-4,5,6,7,8,9-hexahydro-5a,8-methanobenzo[d]azepin-2(3H)-one] | > 20 |  |  |  |  | 
2.22 ± 0.07 | 2.17 ± 0.24 | 2.13 ± 0.16 | COc1ccccc1C=CC(=O)N1CC(C)(C)C23CCC(C2)C(C)(C)C3=CC1=O (stereo not drawn) [E9, 5,5,9,9-Tetramethyl-3-(3-(2-methoxyphenyl)acryloyl)-4,5,6,7,8,9-hexahydro-5a,8-methanobenzo[d]azepin-2(3H)-one] | > 20 |  |  |  |  | 
2.86 ± 0.12 | 1.86 ± 0.09 | 3.89 ± 0.44 | Cc1ccccc1C=CC(=O)N1CC(C)(C)C23CCC(C2)C(C)(C)C3=CC1=O (stereo not drawn) [E5, 5,5,9,9-Tetramethyl-3-(3-(2-tolyl)acryloyl)-4,5,6,7,8,9-hexahydro-5a,8-methanobenzo[d]azepin-2(3H)-one] | > 20 |  |  |  |  | 
2.67 ± 0.18 | 2.44 ± 0.16 | 5.28 ± 0.1 | COc1ccc(C=CC(=O)N2CC(C)(C)C34CCC(C3)C(C)(C)C4=CC2=O)cc1 (stereo not drawn) [E16, 5,5,9,9-Tetramethyl-3-(3-(4-methoxyphenyl)acryloyl)-4,5,6,7,8,9-hexahydro-5a,8-methanobenzo[d]azepin-2(3H)-one] | > 20 |  |  |  |  | 
2.16 ± 0.03 | 2.56 ± 0.16 | 5.28 ± 0.08 | COc1ccc(C=CC(=O)N2CC(C)(C)C34CCC(C3)C(C)(C)C4=CC2=O)cc1OC (stereo not drawn) [E17, 5,5,9,9-Tetramethyl-3-(3-(3,4-dimethoxyphenyl)acryloyl)-4,5,6,7,8,9-hexahydro-5a,8-methanobenzo[d]azepin-2(3H)-one] | > 20 | good anticancer activity |  |  |  | 
1.58 ± 0.16 | 2.09 ± 0.16 | 3.47 ± 0.16 | CC1(C)C2=CC(=O)N(C(=O)C=Cc3ccccc3Cl)CC(C)(C)C23CCC1C3 (stereo not drawn) [E15, 5,5,9,9-Tetramethyl-3-(3-(2-chlorophenyl)acryloyl)-4,5,6,7,8,9-hexahydro-5a,8-methanobenzo[d]azepin-2(3H)-one] | > 20 |  |  |  |  | 
